From patent US5187082A, “Process for producing A83850 antibiotics” (Eli Lilly and Company, priority 1990, dated 1993)
Converted amounts (≈) assume the structure as drawn.

Assays:
[1] = system: Enterococcus faecalis 2041; format: cell-based; settings: Enterococcus faecalis, 2041
Method: (§1) The MIC's in Table VII were determined by standard agar-dilution assays.

Enterococcus faecium X66 = format: cell-based; settings: Enterococcus faecium, X66
Method: as §1

[2] = system: Staphylococcus aureus V41; format: cell-based; settings: Staphylococcus aureus, V41
Method: as §1

[3] = system: Staphylococcus aureus X1.1; format: cell-based; settings: Staphylococcus aureus, X1.1
Method: as §1

[4] = system: Staphylococcus aureus X400; format: cell-based; settings: Staphylococcus aureus, X400
Method: as §1

[5] = system: Staphylococcus epidermidis 222; format: cell-based; settings: Staphylococcus epidermidis, 222
Method: as §1

[6] = system: Staphylococcus epidermidis 270; format: cell-based; settings: Staphylococcus epidermidis, 270
Method: as §1

[7] = system: Streptococcus pyogenes C203; format: cell-based; settings: Streptococcus pyogenes, C203
Method: as §1

[8] = system: Streptococcus pneumoniae Park 1; test: microbe, parasite or virus in culture; format: cell-based; settings: Streptococcus pneumoniae, PARK1
Method: as §1

[9] = system: Peptostreptococcus anaerobius; test: Activity against anaerobic bacteria, agar-dilution MIC; format: cell-based; settings: 24 h
[10] = system: Peptostreptococcus intermedius; test: as above; format: cell-based; settings: Peptostreptococcus, 24 h
Propionibacterium acnes = test: as above; format: cell-based; settings: Cutibacterium acnes, 24 h
Bacteriodes fragilis = test: as above; format: cell-based; settings: 24 h
[11] = system: Bacteriodes melaninogenicus; test: as above; format: cell-based; settings: 24 h
Bacteroides corrodens = test: as above; format: cell-based; settings: Eikenella corrodens, 24 h
Staphylococcus aureus = test: In vivo activity against experimentally-induced infection in mice; settings: doses administered subcutaneously to mice 1 and 4 hours postinfection
Method: (§2) The A83850 antibiotics have also shown in vivo antimicrobial activity against experimentally-induced infections in laboratory animals. When two doses of test compound were administered to mice experimentally infected with the test organism, the activity observed was measured as an ED50 value [effective dose in mg/kg to protect 50% of the test animals: see Warren Wick, et al., J. Bacteriol. 81, 233-235 (1961)].
(§3) ^a mg/kg × 2; doses administered subcutaneously to mice 1 and 4

Streptococcus pneumoniae = test: as above; settings: doses administered subcutaneously to mice 1 and 4 hours postinfection
Method: as §2, §3

Streptococcus pyogenes = test: as above; settings: doses administered subcutaneously to mice 1 and 4 hours postinfection
Method: as §2, §3

[12] = system: Culture A83850 (Amycolatopsis albus NRRL 18532); test: Resistance of culture A83850 to antibiotics, sensitivity discs on seeded ISP No. 2 agar plates; format: cell-based; settings: disc content printed per antibiotic
Method: Resistance to antibiotics was measured by padding antibiotic sensitivity discs onto the surface of seeded ISP No. 2 agar plates.

Clostridium perfringens = test: microbe, parasite or virus in culture; settings: 24 h
Clostridium septicum = test: microbe, parasite or virus in culture; settings: 24 h
Eubacterium aerofaciens = test: microbe, parasite or virus in culture; settings: Collinsella aerofaciens, 24 h
Fusobacterium symbiosum = test: microbe, parasite or virus in culture; settings: 24 h
[13] = system: Fusobacterium necrophorum; test: microbe, parasite or virus in culture; settings: 24 h
Clostridium difficile = test: Activity against anaerobic bacteria, agar-dilution MIC; settings: Clostridioides difficile, 24 h
[14] = system: Peptococcus asaccharolyticus; test: as above; settings: Peptoniphilus asaccharolyticus, 24 h
Peptococcus prevoti = test: as above; settings: 24 h
[15] = system: Bacteriodes thetaiotaomicron; test: as above; settings: 24 h
Bacteriodes vulgatis = test: as above; settings: 24 h

CN[C@H](CC(C)C)C(=O)N[C@H]1C(=O)N[C@@H](CC(N)=O)C(=O)N[C@H]2C(=O)N[C@H]3C(=O)N[C@H](C(=O)N[C@H](C(=O)O)c4cc(O)cc(O)c4-c4cc3ccc4O)[C@H](O)c3ccc(c(Cl)c3)Oc3cc2cc(c3O[C@@H]2O[C@H](CO)[C@@H](O)[C@H](O)[C@H]2O[C@H]2C[C@](C)(N)[C@H](O)[C@H](C)O2)Oc2ccc(cc2Cl)[C@H]1O [Vancomycin, vancomycin, reference compound] was tested, and the MIC [1] was 4 µg/mL (≈ 2.76 µM), the MIC (Enterococcus faecium X66) was 1 µg/mL (≈ 0.69 µM) and the MIC [2] was 0.5 µg/mL (≈ 0.345 µM). For the same compound, the MIC [3] was 0.5 µg/mL (≈ 0.345 µM), the MIC [4] was 1 µg/mL (≈ 0.69 µM) and the MIC [5] was 1 µg/mL (≈ 0.69 µM). For the same compound, the MIC [6] was 1 µg/mL (≈ 0.69 µM), the MIC [7] was 0.5 µg/mL (≈ 0.345 µM) and the MIC [8] was 0.5 µg/mL (≈ 0.345 µM). For the same compound, the MIC [9] was 1 µg/mL (≈ 0.69 µM), the MIC [10] was 2 µg/mL (≈ 1.38 µM) and the MIC (Propionibacterium acnes) was 4 µg/mL (≈ 2.76 µM). The MIC (Bacteriodes fragilis) was 16 to 32 µg/mL (≈ 11 to 22.1 µM), the MIC [11] was 128 µg/mL (≈ 88.3 µM) and the MIC (Bacteroides corrodens) was 32 µg/mL (≈ 22.1 µM). For the same compound, the “ED50 Value” (Staphylococcus aureus) was 1.43 mg/kg × 2, the “ED50 Value” (Streptococcus pneumoniae) was 0.67 mg/kg × 2 and the “ED50 Value” (Streptococcus pyogenes) was 0.98 mg/kg × 2. For the same compound, the “Resistance or inhibition of culture A83850 by antibiotic disc” value [12] was “inhibited”, the MIC (Clostridium perfringens) was 2 µg/mL (≈ 1.38 µM) and the MIC (Clostridium septicum) was 2 µg/mL (≈ 1.38 µM). The MIC (Eubacterium aerofaciens) was 8 µg/mL (≈ 5.52 µM), the MIC (Fusobacterium symbiosum) was 2 µg/mL (≈ 1.38 µM) and the MIC [13] was 1 µg/mL (≈ 0.69 µM). For the same compound, the MIC (Clostridium difficile) was 2 µg/mL (≈ 1.38 µM), the MIC [14] was 4 µg/mL (≈ 2.76 µM) and the MIC (Peptococcus prevoti) was 4 µg/mL (≈ 2.76 µM). The MIC [15] was 64 µg/mL (≈ 44.2 µM) and the MIC (Bacteriodes vulgatis) was 16 µg/mL (≈ 11 µM).
